Results on 33 compounds are retold here after patent US20150203517A1, “Prodrugs of Compounds that Enhance Antifungal Activity and Compositions of Said Prodrugs” (priority 2014, published 2015).

Structures can show the parent of a compound that is named as a salt. Where two headings read alike, the source gives them in different places.

A short description of the data set: Saline solubility at 1.00 mg/mL and 0.50 mg/mL (with pH by indicator paper). To be noted: for pH at 1.00 mg/mL of MGCD290 in saline: final concentration of hydroxamate 1 1.00 mg/mL, pH indicator paper; for solubility at 1 h: saline or isotonic, thermodynamic from solid, centrifuged, soluble = no precipitate formed. It counts as physicochemical. Here is the method: Assays were performed to determine the saline solubility at 1.00 and 0.50 mg/ml and the stability of certain of the prodrug compounds of Examples 1-111. The following procedures were used.
Step 1. Sample preparation. An amount of the compound sample was precisely weighed to correspond to around 5 mg of the hydroxamate of compound 1, taking into account the mass of the leaving group and the salt factor if applicable. The sample was placed in a 16×125 mm glass screw cap tube. Saline was added so that the final concentration of hydroxamate 1 was 1.00 mg/mL. The pH was measured with pH indicator paper. The tube was shaken for 1 hour on a Vortex apparatus then centrifuged at 3000 rpm (1800 rcf) for 5 minutes. If the compound example was soluble (no precipitate formed) the procedure continued to step 2. If a precipitate formed then the sample was diluted with saline so that the final concentration of the hydroxamate of compound 1 was 0.50 mg/mL, and the shaking and centrifuging steps were repeated. If the compound example was soluble (no precipitate formed) the procedure continued to step 2. If a precipitate formed the sample was discarded. Step 2. HPLC analysis. A 500 μL aliquot of a sample solution prepared according to Step 1 was taken up into a 1.5 mL injection vial to which was added 500 μL of saline. The vial was shaken on a Vortex apparatus, injected into the HPLC instrument (UV detection, zero time point) and the retention time and purity of the sample compound were determined. The injection was repeated after 6 hours and 24 hours, and a comparison was made of the retention time, peak areas and level of degradation (if any) using the GDADI50 method.

Where [1] appears, read: 0.50 mg/mL as hydroxamate 1, shaken 1 hour, read-out: Soluble at 0.5 mg/mL of MGCD290 (Y/N).
[2] abbreviates: 1.00 mg/mL as hydroxamate 1, shaken 1 hour, read-out: Soluble at 1.00 mg/mL of MGCD290 (Y/N).

As to `CC(=O)OCC(=O)NCC[C@H](NC(=O)COC(C)=O)C(=O)NCCC(=O)ONC(=O)Cc1ccc(CCCCc2ccccc2)cc1` [Compound 151], the “pH at 1.00 mg/mL of MGCD290 in saline” value is given as 4.5-5. In addition, under setting [1], the solubility at 1 h is below 500 µg/mL. In addition, the solubility at 1 h under setting [2] is below 1000 µg/mL.

For the compound `COCCC(=O)ONC(=O)Cc1ccc(CCCCc2ccccc2)cc1` [Compound 52B], the solubility at 1 h was below 500 µg/mL under setting [1] and below 1000 µg/mL under setting [2].

With `COCCOCCOCCOCC(=O)N1CCC(CC(=O)ONC(=O)Cc2ccc(CCCCc3ccccc3)cc2)CC1` [Compound 116], the “pH at 1.00 mg/mL of MGCD290 in saline” value is on record as 4.5-5. Moreover, the solubility at 1 h under setting [1] was below 500 µg/mL. Besides, under setting [2], the solubility at 1 h was below 1000 µg/mL.

Consider `O=C(Cc1ccc(CCCCc2ccccc2)cc1)NOC(=O)CC1CC1` [Compound 52C], for which the solubility at 1 h reads like this: under setting [1], below 500 µg/mL; under setting [2], below 1000 µg/mL.

For `COCCOCCOCC(=O)N1CCC(CC(=O)ONC(=O)Cc2ccc(CCCCc3ccccc3)cc2)CC1` [Compound 115], the “pH at 1.00 mg/mL of MGCD290 in saline” value is recorded as 4.5-5. For the same compound, the solubility at 1 h under setting [1] is below 500 µg/mL. Moreover, under setting [2], the solubility at 1 h was below 1000 µg/mL.

Consider `COCC(=O)NCCCC[C@H](NC(=O)COC)C(=O)NCCC(=O)ONC(=O)Cc1ccc(CCCCc2ccccc2)cc1` [Compound 67], for which the “pH at 1.00 mg/mL of MGCD290 in saline” value was 4.5-5. Besides, the solubility at 1 h under setting [1] is below 500 µg/mL. For the same compound, the solubility at 1 h under setting [2] was below 1000 µg/mL.

Consider `COCCOCCOCC(=O)NCC[C@H](NC(=O)COCCOCCOC)C(=O)NCCC(=O)ONC(=O)Cc1ccc(CCCCc2ccccc2)cc1` [Compound 147], for which the “pH at 1.00 mg/mL of MGCD290 in saline” value is given as 4.5-5. Besides, under setting [1], the solubility at 1 h is below 500 µg/mL. The solubility at 1 h under setting [2] was below 1000 µg/mL.

For `COCCOCCOCC(=O)NCCCC[C@H](NC(=O)COCCOCCOC)C(=O)N1CCC[C@H]1C(=O)ONC(=O)Cc1ccc(CCCCc2ccccc2)cc1` [Compound 107, N,N′-((S)-6-Oxo-6-((S)-2-((2-(4-(4-phenylbutyl)phenyl)acetamidooxy)carbonyl)pyrrolidin-1-yl)hexane-1,5-diyl)bis(2-(2-(2-methoxyethoxyl)ethoxy)acetamide)], the “pH at 1.00 mg/mL of MGCD290 in saline” value is 4.5-5. Further, the solubility at 1 h under setting [2] was above 1000 µg/mL.

Consider `COCCOCCOCC(=O)N1CCN(C(=O)CCC(=O)ONC(=O)Cc2ccc(CCCCc3ccccc3)cc2)CC1` [Compound 124], for which the “pH at 1.00 mg/mL of MGCD290 in saline” value is on record as 5-5.5. Also, the solubility at 1 h under setting [2] is above 1000 µg/mL.

As for `COCCOCCOCCOCCOCCOCC(=O)NCCCC[C@H](NC(=O)COCCOCCOCCOCCOCCOC)C(=O)NCCCC(=O)ONC(=O)Cc1ccc(CCCCc2ccccc2)cc1` [Compound 103], the “pH at 1.00 mg/mL of MGCD290 in saline” value is 4.5-5. Under setting [2], the solubility at 1 h was above 1000 µg/mL.

In the case of `CCC(=O)ONC(=O)Cc1ccc(CCCCc2ccccc2)cc1` [Compound 52E], the solubility at 1 h was below 500 µg/mL under setting [1] and below 1000 µg/mL under setting [2].

Turning to `COCCOCCOCCOCCOCC(=O)NCCC[C@H](NC(=O)COCCOCCOCCOCCOC)C(=O)NCCC(=O)ONC(=O)Cc1ccc(CCCCc2ccccc2)cc1` [Compound 160], the “pH at 1.00 mg/mL of MGCD290 in saline” value was 4.5-5. Moreover, the solubility at 1 h under setting [1] was below 500 µg/mL. Further, under setting [2], the solubility at 1 h was below 1000 µg/mL.

For the compound `CCCC(CCC)C(=O)ONC(=O)Cc1ccc(CCCCc2ccccc2)cc1` [Compound 50, 2-(4-(4-Phenylbutyl)phenyl)-N-(2-propylpentanoyloxyl)acetamide], the solubility at 1 h by setting is: under setting [1], below 500 µg/mL; under setting [2], below 1000 µg/mL.

In the case of `COCCOCCOCC(=O)NCC1(C(=O)ONC(=O)Cc2ccc(CCCCc3ccccc3)cc2)CC1` [Compound 55, 2-(2-(2-Methoxyethoxyl)ethoxy)-N-((1-((2-(4-(4-phenylbutyl)phenyl)acetamidooxy)carbonyl)cyclopropyl)methyl)acetamide], the solubility at 1 h by setting is: under setting [1], below 500 µg/mL; under setting [2], below 1000 µg/mL.

Take `O=C(Cc1ccc(CCCCc2ccccc2)cc1)NOC(=O)CCC1CCCCC1` [Compound 52]: the solubility at 1 h reads like this: under setting [1], below 500 µg/mL; under setting [2], below 1000 µg/mL.

For `CCOC(=O)CNC(=O)ONC(=O)Cc1ccc(CCCCc2ccccc2)cc1` [Compound 75], the “pH at 1.00 mg/mL of MGCD290 in saline” value is listed as 4.5-5. For the same compound, the solubility at 1 h under setting [1] is below 500 µg/mL. Also, the solubility at 1 h under setting [2] was below 1000 µg/mL.

For the compound `COCCOCCOCC(=O)NCCN(CC(=O)NCCC(=O)ONC(=O)Cc1ccc(CCCCc2ccccc2)cc1)C(=O)COCCOCCOC` [Compound 136], the “pH at 1.00 mg/mL of MGCD290 in saline” value is on record as 5.5-6. Further, the solubility at 1 h under setting [1] was below 500 µg/mL. In addition, the solubility at 1 h under setting [2] was below 1000 µg/mL.

On to `Cl.O=C(Cc1ccc(CCCCc2ccccc2)cc1)NOC(=O)CCC(=O)N1CCNCC1` [Compound 123, N-(4-oxo-4-(piperazin-1-yl)butanoyloxy)-2-(4-(4-phenylbutyl)phenyl) acetamide hydrochloride], for which the “pH at 1.00 mg/mL of MGCD290 in saline” value was 4.5-5. The solubility at 1 h under setting [2] was above 1000 µg/mL.

In the case of `COCCOCCOCCOCCOCC(=O)NCCCC[C@H](NC(=O)COCCOCCOCCOCCOC)C(=O)NCCC(=O)ONC(=O)Cc1ccc(CCCCc2ccccc2)cc1` [Compound 69], the “pH at 1.00 mg/mL of MGCD290 in saline” value is listed as 4.5-5. Under setting [2], the solubility at 1 h is above 1000 µg/mL.

Turning to `COCCOCC(=O)NCCC[C@H](NC(=O)COCCOC)C(=O)NCCC(=O)ONC(=O)Cc1ccc(CCCCc2ccccc2)cc1` [Compound 158], the “pH at 1.00 mg/mL of MGCD290 in saline” value is listed as 4.5-5. Moreover, the solubility at 1 h under setting [1] is below 500 µg/mL. In addition, under setting [2], the solubility at 1 h was below 1000 µg/mL.

As to `COCCOCCOCC(=O)NCCCC[C@H](N)C(=O)NCCC(=O)ONC(=O)Cc1ccc(CCCCc2ccccc2)cc1.Cl` [Compound 142, (S)-2-Amino-6-(2-(2-(2-methoxyethoxy)ethoxy)acetamido)-N-(3-oxo-3-(2-(4-(4-phenylbutyl)phenyl)acetamidooxy)propyl) hexanamide hydrochloride], the “pH at 1.00 mg/mL of MGCD290 in saline” value is recorded as 5-5.5. In addition, under setting [2], the solubility at 1 h was above 1000 µg/mL.

Turning to `COCCOCCOCCOCCOCCOCC(=O)N1CCN(C(=O)ONC(=O)Cc2ccc(CCCCc3ccccc3)cc2)CC1` [Compound 82], the “pH at 1.00 mg/mL of MGCD290 in saline” value is 4.5-5. In addition, under setting [2], the solubility at 1 h was above 1000 µg/mL.

Take `COCCOCCOCCOCCOCCOCC(=O)NCC1(C(=O)ONC(=O)Cc2ccc(CCCCc3ccccc3)cc2)CC1` [Compound 57]: the “pH at 1.00 mg/mL of MGCD290 in saline” value is on record as 4.5-5. Moreover, the solubility at 1 h under setting [1] was below 500 µg/mL. Besides, the solubility at 1 h under setting [2] was below 1000 µg/mL.

Regarding `CC(=O)NCCCC[C@H](NC(C)=O)C(=O)NCCC(=O)ONC(=O)Cc1ccc(CCCCc2ccccc2)cc1` [Compound 66], the “pH at 1.00 mg/mL of MGCD290 in saline” value is reported as 4.5-5. The solubility at 1 h under setting [1] is below 500 µg/mL. Under setting [2], the solubility at 1 h was below 1000 µg/mL.

`COCCOCCOCCOCCOCC(=O)NCCCC[C@H](NC(=O)COCCOCCOCCOCCOC)C(=O)NCCCC(=O)ONC(=O)Cc1ccc(CCCCc2ccccc2)cc1` [Compound 102]: the “pH at 1.00 mg/mL of MGCD290 in saline” value is reported as 4.5-5. The solubility at 1 h under setting [2] was above 1000 µg/mL.

As for `COCCOCCOCCOCCOCCOCC(=O)N1CCC(CC(=O)ONC(=O)Cc2ccc(CCCCc3ccccc3)cc2)CC1` [Compound 117], the “pH at 1.00 mg/mL of MGCD290 in saline” value is on record as 4.5-5. Further, the solubility at 1 h under setting [2] was above 1000 µg/mL.

Regarding `COCCOCCOCCOCCOCCOCC(=O)NCCC(=O)ONC(=O)Cc1ccc(CCCCc2ccccc2)cc1` [Compound 62], the “pH at 1.00 mg/mL of MGCD290 in saline” value is listed as 4.5-5. Also, the solubility at 1 h under setting [1] was below 500 µg/mL. Further, under setting [2], the solubility at 1 h was below 1000 µg/mL.

On to `Cl.O=C(Cc1ccc(CCCCc2ccccc2)cc1)NOC(=O)CCCC1CCNCC1` [Compound 121, 2-(4-(4-phenylbutyl)phenyl)-N-(4-(piperidin-4-yl)butanoyloxy) acetamide hydrochloride], for which the “pH at 1.00 mg/mL of MGCD290 in saline” value is reported as 5.-5.5. Moreover, the solubility at 1 h under setting [1] is below 500 µg/mL. Moreover, the solubility at 1 h under setting [2] was below 1000 µg/mL.

As to `COCCC(=O)NCCCC[C@H](NC(=O)CCOC)C(=O)NCCC(=O)ONC(=O)Cc1ccc(CCCCc2ccccc2)cc1` [Compound 148], the “pH at 1.00 mg/mL of MGCD290 in saline” value is on record as 4.5-5. Under setting [1], the solubility at 1 h was below 500 µg/mL. The solubility at 1 h under setting [2] was below 1000 µg/mL.

For the compound `Cl.O=C(Cc1ccc(CCCCc2ccccc2)cc1)NOC(=O)CC1CCNCC1` [Compound 114], the “pH at 1.00 mg/mL of MGCD290 in saline” value is 4-4.5. Further, under setting [1], the solubility at 1 h was below 500 µg/mL. Also, the solubility at 1 h under setting [2] is below 1000 µg/mL.

`NCCCCCCCC(=O)ONC(=O)Cc1ccc(CCCCc2ccccc2)cc1` [Compound 7, N-(8-aminooctanoyloxy)-2-(4-(4-phenylbutyl)phenyl)acetamide hydrochloride]: the solubility at 1 h is, setting by setting: under setting [1], below 500 µg/mL; under setting [2], below 1000 µg/mL.

In the case of `COCCOCCOCCOCCOCC(=O)NCC[C@H](NC(=O)COCCOCCOCCOCCOC)C(=O)NCCC(=O)ONC(=O)Cc1ccc(CCCCc2ccccc2)cc1` [Compound 149], the “pH at 1.00 mg/mL of MGCD290 in saline” value is reported as 4.5-5. Moreover, the solubility at 1 h under setting [1] is below 500 µg/mL. Under setting [2], the solubility at 1 h is below 1000 µg/mL.

With `CC(=O)ONC(=O)Cc1ccc(CCCCc2ccccc2)cc1` [Compound 52D], the solubility at 1 h under setting [1] was below 500 µg/mL and the solubility at 1 h under setting [2] was below 1000 µg/mL.
